Drawing on patent publication US20230399341A1, “7-PHENYL SUBSTITUTED 2-AMINOQUINAZOLINE INHIBITORS OF HPK1” (MERCK SHARP & DOHME LLC, priority 2020, published 2023), this text covers IC50 for 27 compounds.

For orientation: IC50 means the midpoint of a concentration-inhibition curve. High values mean weaker potency, low ones greater potency.

SMILES strings stand for the structures.

In the test the target is T1, Human HPK1, catalytic domain (Homo sapiens, UniProt Q92918).
T1 sequence (Q92918 1-346): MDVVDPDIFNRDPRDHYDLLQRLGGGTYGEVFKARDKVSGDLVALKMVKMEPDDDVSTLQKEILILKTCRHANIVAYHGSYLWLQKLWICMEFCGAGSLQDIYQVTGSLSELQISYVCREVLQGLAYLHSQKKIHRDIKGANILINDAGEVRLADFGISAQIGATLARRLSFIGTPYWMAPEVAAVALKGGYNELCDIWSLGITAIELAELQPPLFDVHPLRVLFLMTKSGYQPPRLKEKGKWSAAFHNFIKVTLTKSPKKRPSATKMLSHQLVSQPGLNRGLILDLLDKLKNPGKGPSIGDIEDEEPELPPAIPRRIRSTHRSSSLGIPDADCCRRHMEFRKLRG
Briefly: HPK1-SLP76 TR-FRET Assay. The test is classed as biochemical. The conditions noted are these: 75 pM HPK1, ATP 10 uM, SLP76 10 nM, 30 min pre-incubation, 60 min reaction. (In general: In TR-FRET formats the signal depends on donor and acceptor labels being close together.)

Regarding `COc1cc2c(cc1Nc1ncc3c(N)c(F)c(-c4cnc5c(c4C)NCCO5)cc3n1)C(CO)N(C)CC2` (racemic) [Compound 2-46, (R and S)-(7-{[5-amino-6-fluoro-7-(8-methyl-2,3-dihydro-1H-pyrido[2,3-b][1,4]oxazin-7-yl)quinazolin-2-yl]amino}-6-methoxy-2-methyl-1,2,3,4-tetrahydroisoquinolin-1-yl)methanol], the IC50 was determined as 3.09 nM. As for `COc1cc2c(cc1Nc1ncc3ccc(-c4cccc(C(=O)N5CCCC5)c4)cc3n1)CNCC2` [Compound 1-86, (3-{2-[(6-methoxy-1,2,3,4-tetrahydroisoquinolin-7-yl)amino]quinazolin-7-yl}phenyl)(pyrrolidin-1-yl)methanone], the figure is 44.1 nM; as for `Cc1ccc(C#N)cc1-c1cc2nc(Nc3ccc(S(C)(=O)=O)cc3)ncc2c(N)c1F` [Compound 2-52, 3-(5-amino-6-fluoro-2-{[4-(methylsulfonyl)phenyl]amino}quinazolin-7-yl)-4-methylbenzonitrile], 424 nM; as for `Cc1c(-c2c(F)c(N)c3cnc(Nc4ccc5c(c4)CN(C)CC5)nc3c2Cl)cnc2c1NCCO2` (single isomer, unassigned) [Compound 2-180, (+ or −)-8-chloro-6-fluoro-7-(8-methyl-2,3-dihydro-1H-pyrido[2,3-b][1,4]oxazin-7-yl)-N~2~- (2-methyl-1,2,3,4-tetrahydroisoquinolin-7-yl)quinazoline-2,5-diamine], 0.0248 nM. For the compound `COc1cc2c(cc1Nc1ncc3ccc(-c4cncc(C)c4)cc3n1)CNCC2` [Compound 1-41, N-(6-methoxy-1,2,3,4-tetrahydroisoquinolin-7-yl)-7-(5-methylpyridin-3-yl)quinazolin-2-amine], the IC50 turned out to be 9.67 nM. For `Cc1c(-c2cc3nc(Nc4ccc(C5(S(C)(=O)=O)CC5)cc4)ncc3c(N)c2F)cnc2c1NCCO2` [Compound 2-148, 6-fluoro-N~2~-{4-[1-(methanesulfonyl)cyclo-propyl]phenyl}-7-(8-methyl-2,3-dihydro-1H-pyrido[2,3-b][1,4]oxazin-7-yl)quinazoline-2,5-diamine] the value was 0.0831 nM; for `COc1cc2c(cc1Nc1ncc3c(N)c(F)c(-c4cnc5c(c4C)NCCO5)c(Cl)c3n1)CN(C)CC2(C)C` [Compound 2-104, 8-chloro-6-fluoro-N2-(6-methoxy-2,4,4-trimethyl-1,2,3,4-tetrahydroisoquinolin-7-yl)-7-(8-methyl-2,3-dihydro-1H-pyrido[2,3-b][1,4]oxazin-7-yl)quinazoline-2,5-diamine], 0.795 nM. As for `COc1cncc(-c2ccc3cnc(Nc4cc5c(cc4OC)CCN(C)C5)nc3c2)c1` [Compound 1-17, N-(6-methoxy-2-methyl-1,2,3,4-tetrahydroisoquinolin-7-yl)-7-(5-methoxypyridin-3-yl)quinazolin-2-amine], the figure is 19.1 nM; as for `Cc1c(-c2ccc3cnc(Nc4ccc(CS(=O)(=O)C(C)C)cc4)nc3c2)cnc2c1NCCO2` [Compound 1-129, N-(4-((isopropylsulfonyl)methyl)phenyl)-7-(8-methyl-2,3-dihydro-1H-pyrido[2,3-b][1,4]oxazin-7-yl)quinazolin-2-amine], 0.0917 nM. For `COc1cc2c(cc1Nc1ncc3c(N)c(F)c(-c4cnc5c(c4C)NCCO5)cc3n1)C(C)N(C)C(C)C2` (racemic) [Compound 2-48, (R,R and S,S)-6-fluoro-N~2~-(6-methoxy-1,2,3-trimethyl-1,2,3,4-tetrahydroisoquinolin-7-yl)-7-(8-methyl-2,3-dihydro-1H-pyrido[2,3-b][1,4]oxazin-7-yl)quinazoline-2,5-diamine] the value was 0.696 nM; for `COc1cc2c(cc1Nc1ncc3ccc(-c4ccc(CC#N)nc4)cc3n1)CN(C)CC2` [Compound 1-108, (5-{2-[(6-methoxy-2-methyl-1,2,3,4-tetrahydroisoquinolin-7-yl)amino]quinazolin-7-yl}pyridin-2-yl)acetonitrile], 56 nM; for `Cc1c(-c2cc3nc(Nc4ccc5c(c4)COCC5)ncc3c(N)c2F)cnc2c1NCCO2` [Compound 2-118, N~2~-(3,4-dihydro-1H-2-benzopyran-7-yl)-6-fluoro-7-(8-methyl-2,3-dihydro-1H-pyrido[2,3-b][1,4]oxazin-7-yl)quinazoline-2,5-diamine], 0.0607 nM. The compound `CNC(=O)c1ccc(Nc2ncc3c(N)c(F)c(-c4c(Cl)nc5c(c4C)NCCO5)c(Cl)c3n2)c(OC)c1` [Compound 2-98, (+ or −)-4-{[5-amino-8-chloro-7-(6-chloro-8-methyl-2,3-dihydro-1H-pyrido[2,3-b][1,4]oxazin-7-yl)-6-fluoroquinazolin-2-yl]amino}-3-methoxy-N-methylbenzamide] registered a concentration for half-maximal inhibition (IC50) of 6.73 nM. For `Cc1c(-c2c(F)c(N)c3cnc(Nc4ccc5c(c4)CN(C)CC54CC4)nc3c2C#N)cnc2c1NCCO2` [Compound 2-109, (+ or −)-5-amino-6-fluoro-2-((2′-methyl-2′,3′-dihydro-1′H-spiro[cyclopropane-1,4′-isoquinolin]-7′-yl)amino)-7-(8-methyl-2,3-dihydro-1H-pyrido[2,3-b][1,4]oxazin-7-yl)quinazoline-8-carbonitrile] the value was 0.0528 nM; for `COc1cc2c(cc1Nc1ncc3ccc(-c4cc(C#N)ccc4OC)cc3n1)CNCC2` [Compound 1-63, 4-methoxy-3-{2-[(6-methoxy-1,2,3,4-tetrahydroisoquinolin-7-yl)amino]quinazolin-7-yl}benzonitrile], 45.7 nM; for `COc1cc2c(cc1Nc1ncc3ccc(NCC4(C)CCOC4)cc3n1)CN(C)CC2` (racemic) [Compound 3-75, (S and R)-N~2~-(6-methoxy-2-methyl-1,2,3,4-tetrahydroiso-quinolin-7-yl)-N~7~-[(3-meth-yloxolan-3-yl)methyl]quinaz-oline-2,7-diamine], 90.1 nM. As for `CN1Cc2cc(Nc3ncc4c(N)c(F)c(-c5cnc6c(c5Cl)NCCO6)cc4n3)ccc2C2(CC2)C1` [Compound 2-152, 7-(8-chloro-2,3-dihydro-1H-pyrido[2,3-b][1,4]oxazin-7-yl)-6-fluoro-N~2~-(2′-methyl-2′,3′-dihydro-1′H-spiro[cyclopropane-1,4′-isoquinolin]-7′-yl)quinazoline-2,5-diamine], the figure is 0.0714 nM; as for `C[C@H]1COC(=O)N1c1cc(N)c2cnc(Nc3ccc(CS(C)(=O)=O)cc3)nc2c1` [Compound 3-78, (S)-3-(5-amino-2-((4-((methyl-sulfonyl)methyl)phenyl)amino)-quinazolin-7-yl)-4-methyloxa-zolidin-2-one], 0.169 nM; as for `Cc1c(-c2cc3nc(Nc4ccc(C(C)S(C)(=O)=O)cc4)ncc3cc2F)cnc2c1NCCO2` (single isomer, unassigned) [Compound 1-126, (R of S)-6-fluoro-7-(8-methyl-2,3-dihydro-1H-pyrido[2,3-b][1,4]oxazin-7-yl)-N-{4-[1-(methylsulfonyl)ethyl]phenyl} quinazolin-2-amine], 0.68 nM. For `COc1cc2c(cc1Nc1ncc3ccc(-c4cc(C)ccc4N4CCOC4=O)cc3n1)CN(C)CC2` [Compound 1-11, 3-(2-{2-[(6-methoxy-2-methyl-1,2,3,4-tetrahydroisoquinolin-7-yl)amino]quinazolin-7-yl}-4-methylphenyl)-1,3-oxazolidin-2-one] the value was 179 nM. Regarding `COc1cc2c(cc1Nc1ncc3ccc(Nc4cccc(CO)n4)cc3n1)CN(C)CC2` [Compound 3-29, [6-({2-[(6-methoxy-2-methyl-1,2,3,4-tetrahydroisoquinolin-7-yl)amino]quinazolin-7-yl}-amino)pyridin-2-yl]methanol], the IC50 came to 20.5 nM.

In turn, `COc1cc(S(N)(=O)=O)ccc1Nc1ncc2c(N)c(F)c(-c3cnc4c(c3C)NCCO4)cc2n1` [Compound 2-6, 4-{[5-amino-6-fluoro-7-(8-methyl-2,3-dihydro-1H-pyrido[2,3-b][1,4]oxazin-7-yl)quinazolin-2-yl]amino}-3-methoxybenzene-1-sulfonamide] showed an IC50 of 48.1 nM. For `COc1cc2c(cc1Nc1ncc3ccc(-c4cncc5cccnc45)cc3n1)CN(C)CC2` [Compound 1-24, N-(6-methoxy-2-methyl-1,2,3,4-tetrahydroisoquinolin-7-yl)-7-(1,6-naphthyridin-8-yl)quinazolin-2-amine] the value was 10.5 nM; for `COc1cc2c(cc1Nc1ncc3ccc(N4CC(C(C)(C)O)OC4=O)cc3n1)CN(C)CC2` (racemic) [Compound 3-9, (S and R)-5-(2-hydroxypropan-2-yl)-3-{2-[(6-methoxy-2-meth-yl-1,2,3,4-tetrahydroisoquinolin-7-yl)amino]quinazolin-7-yl}-1,3-oxazolidin-2-one], 63 nM.

Regarding `COc1cc2c(cc1Nc1ncc3c(N)c(F)c(-c4cnc5c(c4C)NCCO5)cc3n1)CN(C(C)C)CC2` [Compound 2-72, 6-fluoro-N~2~-[6-methoxy-2-(propan-2-yl)-1,2,3,4-tetrahydroisoquinolin-7-yl]-7-(8-methyl-2,3-dihydro-1H-pyrido[2,3-b][1,4]oxazin-7-yl)quinazoline-2,5-diamine], the IC50 worked out at 0.117 nM.

Compound `COc1cc2c(cc1Nc1ncc3ccc(-c4ccc(NC(C)=O)nc4)cc3n1)CN(C)CC2` [Compound 1-18, N-(5-{2-[(6-methoxy-2-methyl-1,2,3,4-tetrahydroisoquinolin-7-yl)amino]quinazolin-7-yl}pyridin-2-yl)acetamide] had a 50% inhibitory concentration (IC50) of 82.2 nM.

`COc1cc2c(cc1Nc1ncc3ccc(-c4cccc(N5CCOCC5)c4)cc3n1)CNCC2` [Compound 1-91, N-(6-methoxy-1,2,3,4-tetrahydroisoquinolin-7-yl)-7-[3-(morpholin-4-yl)phenyl]quinazolin-2-amine] returned a concentration for half-maximal inhibition (IC50) of 210 nM.
